How the values were obtained:
ATR kinase = ATR kinase (Homo sapiens (Human), UniProt Q13535); assay: Screening for in vitro inhibitory activity against ATR kinase; format: biochemical; conditions: 10 μM ATP, 0.1 μM U Light-poly GT substrate
Method: A 50 ng/μL ATR stock solution was diluted with a kinase buffer (50 mM HEPES, 10 mM MgCl2, 2 mM DTT, 1 mM EGTA, 0.01% Tween 20), and 6 μL of 1.67×, 0.0835 ng/μL working solution was added to each well (final concentration: 0.05 ng/μL). Different compounds dissolved in DMSO were added to wells using a nanoliter pipettor, such that the final concentrations of the compounds were 1000 nM-0.24 nM and the concentrations in positive wells were 100 nM-0.024 nM (4-fold gradient, 7 concentrations in total). Meanwhile, a blank control well (containing no enzyme) and a negative control well (containing enzyme, with the vehicle DMSO added) were set. After the enzyme had reacted with the compound or vehicle for 30 min, a 5×, 50 μM ATP (final concentration: 10 μM) prepared with the kinase buffer and a 5×, 0.5 μM substrate (final concentration: 0.1 μM, U Light-poly GT) were 1:1 mixed, and the mixture was added to wells at 4 μL/well. After the plate was sealed with a sealing film and the plate was incubated at room temperature for 2 h, 5 μL of 4×, 40 mM EDTA (final concentration: 10 mM) was added to each well. After 5 min of incubation at room temperature, 5 μL of a 4×, 8 nM assay reagent (final concentration: 2 nM, Ep-anti-phospho-tyrosine antibody) was added to each well. The plate was incubated at room temperature for 1 h. Plate reading was performed on a PE instrument (excitation: 320 or 340 nm; emission: 665 nm), and four-parameter fitting and IC50 calculations were performed. The results are shown in Table 1, where A represents IC50<50 nM.

TMD-8 cells = assay: Assay for inhibitory activity on TMD-8 cell proliferation (CCK-8); format: cell-based
Method: TMD-8 cells in a good growth state were collected into a centrifuge tube, adjusted to a cell density of 4×10^4 cells/mL, and inoculated onto a 96-well plate (100 μL/well), and the plate was incubated overnight in a cell incubator. Compounds were added using a nanoliter pipettor such that the final concentrations of the compounds were 10,000 nM-4.57 nM (the addition was performed in duplicate). Meanwhile, a control was set. After another 72 h of incubation in the cell incubator, the assay reagent CCK-8 (manufacturer: Dojindo Laboratories; 10 μL/well) was added. After 4 h of incubation in the cell incubator, absorbance was measured at 450 nm on an Envision microplate reader. A four-parameter analysis was performed, a dose-response curve was fit, and IC50 was calculated. The results are shown in Table 2, where A represents IC50≤200 nM.

[1] = In vitro liver microsomal stability; format: in vitro ADME; conditions: human liver microsomes, NADPH, 37° C.
Method: A 200-μL final incubation system contained 20 μL of liver microsomes (protein concentration: 5 mg/mL), 20 μL of NADPH+MgCl2, 2 μL of a substrate, and 158 μL of PBS buffer. The proportion of the organic solvent was 1%. The assay was performed in duplicate (0.2 mL each) for each species. A 180-μL mixture of substrate and enzyme was prepared in each tube. After the mixture and NADPH were pre-incubated at 37° C. for 5 min, 20 μL of NADPH+MgCl2 was added and mixed. 50-μL samples were taken at 0, 15 and 60 min, and the reactions were stopped using ice-cold acetonitrile containing an internal standard.
50-μL incubated samples were taken, and 300 μL of internal standard-containing acetonitrile was added for precipitation. After 5 min of vortexing and shaking, centrifugation (13,000 rpm, 20° C.) was performed for 10 min. 80 μL of the supernatant was added to a 96-well plate and diluted with 80 μL of ultrapure water, and 1 μL of the dilution was injected for LC-MS/MS analysis.

[2] = Pharmacokinetic evaluation of compounds in mice; format: in vivo; conditions: ICR mice
Method: ICR mice, weighing 18-22 g, were randomized into 4 groups of 9 after 3-5 days of acclimatization, and were administered intragastrically (IG) a test compound at a dose of 10 mg/kg and intravenously (IV) a test compound at a dose of 1 mg/kg.
The test animals (ICR mice) were fasted for 12 h before the administration and given food 4 h after the administration, and they were given ad libitum access to water before, during and after the experiment.
Orbital blood samples of about 0.1 mL were collected at 15 min, 30 min, 1 h, 2 h, 3 h, 4 h, 6 h, 8 h, 10 h and 24 h after the intragastric administration. Orbital blood samples of about 0.1 mL were collected at 5 min, 10 min, 30 min, 1 h, 2 h, 4 h, 6 h, 8 h, 10 h and 24 h after the intravenous administration. The blood sample collection was performed at 3-4 time points for each mouse, 3 mice/per time point. The collected whole blood was placed in EDTA-K2-containing centrifuge tubes and stored at 4° C., and, within 1 h, was centrifuged at 4° C. at 4000 rpm for 10 min to separate plasma. All plasma samples were collected and immediately stored at −20° C. for testing. 30 μL of a plasma sample to be tested and a standard-curve sample were collected, and 300 μL of an acetonitrile solution containing an internal standard (20 ng/mL diazepam) was added and well mixed by 5 min of shaking. The mixture was centrifuged at 13,000 rpm for 10 min, and 80 µL of the supernatant was collected and diluted with 80 μL of ultrapure water. After well mixing, 2 μL of the dilution was collected for liquid chromatography-mass spectrometry analysis, and pharmacokinetic parameters were calculated.

[3] = Homo sapiens, TMD8, 72 h incubation
[4] = plasma, IG 10 mg/kg / IV 1 mg/kg study

Sequence of ATR kinase (Q13535 whole entry): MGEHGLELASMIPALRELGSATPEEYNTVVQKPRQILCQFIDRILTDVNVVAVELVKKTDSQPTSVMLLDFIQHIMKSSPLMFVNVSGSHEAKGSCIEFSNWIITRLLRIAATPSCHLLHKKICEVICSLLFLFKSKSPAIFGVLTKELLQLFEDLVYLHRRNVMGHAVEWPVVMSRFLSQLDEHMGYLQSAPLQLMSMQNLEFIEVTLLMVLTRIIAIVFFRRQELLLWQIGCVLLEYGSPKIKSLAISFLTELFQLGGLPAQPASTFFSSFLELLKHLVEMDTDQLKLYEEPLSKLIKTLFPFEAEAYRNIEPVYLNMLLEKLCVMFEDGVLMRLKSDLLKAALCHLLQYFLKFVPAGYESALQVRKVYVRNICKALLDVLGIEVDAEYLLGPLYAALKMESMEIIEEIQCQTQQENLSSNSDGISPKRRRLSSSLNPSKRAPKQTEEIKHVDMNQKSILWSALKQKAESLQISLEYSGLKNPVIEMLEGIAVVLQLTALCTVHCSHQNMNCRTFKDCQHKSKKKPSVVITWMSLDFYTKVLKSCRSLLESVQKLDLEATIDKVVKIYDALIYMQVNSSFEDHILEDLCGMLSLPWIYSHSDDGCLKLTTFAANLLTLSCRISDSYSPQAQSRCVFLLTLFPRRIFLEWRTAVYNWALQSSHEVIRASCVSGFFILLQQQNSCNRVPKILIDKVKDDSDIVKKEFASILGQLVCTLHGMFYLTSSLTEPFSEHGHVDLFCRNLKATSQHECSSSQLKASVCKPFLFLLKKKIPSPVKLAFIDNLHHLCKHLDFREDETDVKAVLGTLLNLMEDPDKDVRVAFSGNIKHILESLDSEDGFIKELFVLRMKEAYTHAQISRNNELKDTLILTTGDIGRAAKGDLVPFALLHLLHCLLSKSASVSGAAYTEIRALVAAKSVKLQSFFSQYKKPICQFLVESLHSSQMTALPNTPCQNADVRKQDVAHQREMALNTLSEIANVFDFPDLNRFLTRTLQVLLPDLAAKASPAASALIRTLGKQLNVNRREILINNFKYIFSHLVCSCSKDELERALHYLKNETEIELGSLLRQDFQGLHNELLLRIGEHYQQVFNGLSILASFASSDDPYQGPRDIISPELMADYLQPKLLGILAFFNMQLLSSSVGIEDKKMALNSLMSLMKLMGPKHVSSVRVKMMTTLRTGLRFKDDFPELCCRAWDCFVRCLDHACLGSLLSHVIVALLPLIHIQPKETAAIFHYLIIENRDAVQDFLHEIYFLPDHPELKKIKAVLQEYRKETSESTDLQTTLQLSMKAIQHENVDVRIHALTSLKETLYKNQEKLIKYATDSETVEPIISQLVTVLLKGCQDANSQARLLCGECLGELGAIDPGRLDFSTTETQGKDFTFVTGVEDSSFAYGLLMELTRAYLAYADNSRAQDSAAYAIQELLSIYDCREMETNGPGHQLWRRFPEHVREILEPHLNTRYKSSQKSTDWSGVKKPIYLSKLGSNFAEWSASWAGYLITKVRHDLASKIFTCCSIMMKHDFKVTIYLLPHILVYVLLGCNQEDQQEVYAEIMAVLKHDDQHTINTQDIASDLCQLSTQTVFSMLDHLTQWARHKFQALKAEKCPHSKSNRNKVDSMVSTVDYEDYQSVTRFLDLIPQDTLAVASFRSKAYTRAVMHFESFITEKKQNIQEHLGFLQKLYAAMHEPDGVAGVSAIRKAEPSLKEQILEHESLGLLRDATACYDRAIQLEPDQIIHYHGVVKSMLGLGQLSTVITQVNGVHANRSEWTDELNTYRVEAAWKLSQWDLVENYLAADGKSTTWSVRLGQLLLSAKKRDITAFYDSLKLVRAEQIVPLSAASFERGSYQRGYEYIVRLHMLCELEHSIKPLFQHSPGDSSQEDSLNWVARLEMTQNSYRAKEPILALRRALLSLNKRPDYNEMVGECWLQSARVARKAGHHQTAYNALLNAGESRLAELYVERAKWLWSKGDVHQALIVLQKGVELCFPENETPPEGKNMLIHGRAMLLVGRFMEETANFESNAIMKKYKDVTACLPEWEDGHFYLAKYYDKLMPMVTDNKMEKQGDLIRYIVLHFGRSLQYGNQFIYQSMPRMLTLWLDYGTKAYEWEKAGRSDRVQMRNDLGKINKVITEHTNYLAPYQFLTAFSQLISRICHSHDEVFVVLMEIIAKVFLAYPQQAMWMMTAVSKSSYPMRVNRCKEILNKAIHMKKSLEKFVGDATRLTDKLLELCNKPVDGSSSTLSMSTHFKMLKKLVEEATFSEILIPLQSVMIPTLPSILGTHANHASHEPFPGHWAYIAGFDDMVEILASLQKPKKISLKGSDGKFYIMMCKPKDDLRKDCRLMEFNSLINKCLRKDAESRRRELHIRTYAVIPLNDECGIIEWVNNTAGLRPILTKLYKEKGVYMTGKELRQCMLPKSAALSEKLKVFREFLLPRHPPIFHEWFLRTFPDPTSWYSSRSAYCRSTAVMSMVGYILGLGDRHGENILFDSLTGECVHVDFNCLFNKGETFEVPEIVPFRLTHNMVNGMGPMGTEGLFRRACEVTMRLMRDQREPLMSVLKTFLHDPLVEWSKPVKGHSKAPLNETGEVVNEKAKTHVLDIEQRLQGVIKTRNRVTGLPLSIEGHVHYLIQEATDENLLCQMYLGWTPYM
Sequence of ATR kinase (Q8WXE1 whole entry partner): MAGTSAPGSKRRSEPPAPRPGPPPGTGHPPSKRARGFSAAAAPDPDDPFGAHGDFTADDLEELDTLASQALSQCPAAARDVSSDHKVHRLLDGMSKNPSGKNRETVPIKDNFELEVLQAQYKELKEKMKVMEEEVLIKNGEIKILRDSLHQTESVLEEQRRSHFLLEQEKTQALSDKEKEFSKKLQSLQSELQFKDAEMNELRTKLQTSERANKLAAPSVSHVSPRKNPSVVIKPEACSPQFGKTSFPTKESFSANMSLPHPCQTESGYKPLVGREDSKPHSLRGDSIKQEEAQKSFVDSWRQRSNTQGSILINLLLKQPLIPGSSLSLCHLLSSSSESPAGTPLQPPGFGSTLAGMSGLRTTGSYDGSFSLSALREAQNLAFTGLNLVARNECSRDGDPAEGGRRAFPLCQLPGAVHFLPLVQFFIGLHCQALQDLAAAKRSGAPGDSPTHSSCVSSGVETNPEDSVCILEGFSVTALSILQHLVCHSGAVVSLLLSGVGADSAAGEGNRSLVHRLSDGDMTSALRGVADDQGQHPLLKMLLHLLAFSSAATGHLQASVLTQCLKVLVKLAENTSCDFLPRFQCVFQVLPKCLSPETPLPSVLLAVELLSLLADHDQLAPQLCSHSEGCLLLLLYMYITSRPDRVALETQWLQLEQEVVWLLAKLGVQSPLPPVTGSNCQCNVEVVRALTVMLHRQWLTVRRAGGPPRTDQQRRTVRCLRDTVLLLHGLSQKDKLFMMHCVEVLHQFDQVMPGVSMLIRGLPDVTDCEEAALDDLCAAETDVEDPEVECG

| Structure (SMILES) | Human liver microsome (Residual % at 60 min) [1] | IC50 (TMD-8 cells; [3]) | also measured |
| --- | --- | --- | --- |
| C[C@@H]1COCCN1c1cc(N=[S@@](C)(=O)c2ccc(F)cc2)c2cnn(-c3ccn[nH]3)c2n1 (single isomer, unassigned) [Compound 14-A] | – | – | IC50 (ATR kinase): < 50 nM |
| C[C@@H]1COCCN1c1cc(N=[S@@](C)(=O)C2CCCC2)c2cnn(-c3ccn[nH]3)c2n1 (single isomer, unassigned) [Compound 15-A] | – | ≤ 200 nM | IC50 (ATR kinase): < 50 nM |
| C[C@@H]1COCCN1c1cc(N=[S@](C)(=O)C2CCC(F)(F)CC2)c2cnn(-c3ccn[nH]3)c2n1 (single isomer, unassigned) [Compound 16-A] | – | – | IC50 (ATR kinase): < 50 nM |
| C[C@@H]1COCCN1c1cc(N=S2(=O)CCCCC2)c2cnn(-c3ccn[nH]3)c2n1 [Compound 5] | – | ≤ 200 nM | – |
| C[C@@H]1COCCN1c1cc(N=S2(=O)CCOCC2)c2cnn(-c3ccn[nH]3)c2n1 [Compound 6] | 94.62% | – | – |
| C[C@@H]1COCCN1c1cc(N=[S@](C)(=O)C2CC2)c2cnn(-c3ccn[nH]3)c2n1 [Compound 10-A] | 95.39% | – | IC50 (ATR kinase): < 50 nM; IG half-life t1/2 ([2]; intragastric 10 mg/kg): 1.3 h; Area under plasma concentration-time curve AUC0-last [2, 4]: 13943 ng·h/mL; Peak concentration Cmax [2, 4]: 4888 ng/mL; Tissue distribution Vd ([2]; IG 10 mg/kg / IV 1 mg/kg study): 0.68 L/kg; Absolute bioavailability F ([2]; IG 10 mg/kg vs IV 1 mg/kg): 66% |
| C[C@@H]1COCCN1c1cc(N=[S@@](C)(=O)C2CCCC2)c2cnn(-c3ccn[nH]3)c2n1 [Compound 15-B] | – | ≤ 200 nM | – |
| C[C@@H]1COCCN1c1cc(N=S(C)(=O)C(C)(C)C)c2cnn(-c3ccn[nH]3)c2n1 (some centres unmarked) [Compound 17] | – | ≤ 200 nM | – |
| Cc1cc(-n2ncc3c(N=[S@@](C)(=O)C4CC4)cc(N4CCOC[C@H]4C)nc32)[nH]n1 [Compound 19-A] | – | – | IC50 (TMD-8 cells; 72 h incubation): ≤ 200 nM; IC50 (ATR kinase): < 50 nM; IG half-life t1/2 ([2]; intragastric 10 mg/kg): 1.16 h; Area under plasma concentration-time curve AUC0-last [2, 4]: 5403 ng·h/mL; Peak concentration Cmax [2, 4]: 2948 ng/mL; Tissue distribution Vd ([2]; IG 10 mg/kg / IV 1 mg/kg study): 4.58 L/kg; Absolute bioavailability F ([2]; IG 10 mg/kg vs IV 1 mg/kg): 88% |
| Cc1nn(-c2ccn[nH]2)c2nc(N3CCOC[C@H]3C)cc(N=S(C)(C)=O)c12 [Compound 20] | – | ≤ 200 nM | bioavailability ([2]; mouse, plasma, oral, IG 10 mg/kg vs IV 1 mg/kg, read-out: Absolute bioavailability F): 74%; half-life ([2]; mouse, plasma, po, intragastric 10 mg/kg, read-out: IG half-life t1/2 (converted)): 1.93 h; Vd ([2]; mouse, plasma, IG 10 mg/kg / IV 1 mg/kg study, read-out: Tissue distribution Vd): 1.04 L/kg; AUC(0-t) ([2]; mouse, plasma, IG 10 mg/kg / IV 1 mg/kg study, read-out: Area under plasma concentration-time curve AUC0-last): 14600 ng·h/mL; Cmax ([2]; mouse, plasma, IG 10 mg/kg / IV 1 mg/kg study, read-out: Peak concentration Cmax): 6520 ng/mL |
| CC(C)Cc1nn(-c2cc[nH]n2)c2nc(N3CCOC[C@H]3C)cc(N=S(C)(C)=O)c12 [Compound 21] | – | ≤ 200 nM | – |
| C[C@@H]1COCCN1c1cc(N=S(C)(C)=O)c2c(C3CC3)nn(-c3ccn[nH]3)c2n1 [Compound 22] | – | ≤ 200 nM | – |
| C[C@@H]1COCCN1c1cc(N=S(C)(C)=O)c2c(C(F)(F)F)nn(-c3ccn[nH]3)c2n1 [Compound 23] | – | ≤ 200 nM | – |
| C[C@@H]1COCCN1c1cc(N=S(C)(C)=O)c2c(CCC(F)(F)F)nn(-c3ccn[nH]3)c2n1 [Compound 24] | – | ≤ 200 nM | – |
| C[C@@H]1COCCN1c1cc(N=S(C)(C)=O)c2c(C(C)(C)C)nn(-c3cc[nH]n3)c2n1 [Compound 25] | – | ≤ 200 nM | – |
| C[C@@H]1COCCN1c1cc(N=S(C)(C)=O)c2c(C#CC3CC3)nn(-c3cc[nH]n3)c2n1 [Compound 26] | – | ≤ 200 nM | – |

More lines, main results first:

| Human liver microsome (Residual % at 60 min) [1] | Structure (SMILES) | IC50 (TMD-8 cells; [3]) | also measured |
| --- | --- | --- | --- |
| 102.05% | C[C@@H]1COCCN1c1cc(N=S(C)(C)=O)c2cnn(-c3ccn[nH]3)c2n1 [Compound 1] | ≤ 200 nM | – |
| 85.89% | CCS(=O)(CC)=Nc1cc(N2CCOC[C@H]2C)nc2c1cnn2-c1ccn[nH]1 [Compound 2] | ≤ 200 nM | – |
| 106.47% | C[C@@H]1COCCN1c1cc(N=S2(=O)CCC2)c2cnn(-c3ccn[nH]3)c2n1 [Compound 3] | ≤ 200 nM | – |
| 96.49% | C[C@@H]1COCCN1c1cc(N=S2(=O)CCCC2)c2cnn(-c3ccn[nH]3)c2n1 [Compound 4] | ≤ 200 nM | – |
| 108.36% | Cc1cc(-n2ncc3c(N=S(C)(C)=O)cc(N4CCOC[C@H]4C)nc32)[nH]n1 [Compound 13] | – | IC50 (ATR kinase): < 50 nM |

Source: US20250026750A1, “SULFOXIMINE-CONTAINING ATR INHIBITOR COMPOUND” (Chia Tai Tianqing Pharmaceutical Group Co., Ltd., priority 2021, published 2025)
